Results on 1 molecule are retold here after publication PMC3114464 (Biochemistry, 2011).

Assay type in all cases: binding
Assay [1] deals with IsdB-N2 (C-terminal NEAT domain of IsdB) (Staphylococcus aureus, UniProt Q7A656). Description: […] Å crystal structure.
The target of a further assay is IsdB-N2 M362L (Staphylococcus aureus, UniProt Q7A656, M362L). Description: Trp fluorescence quenching.
Assay [2] concerns the target IsdA-N1 (IsdA NEAT domain) (Staphylococcus aureus, UniProt Q7A655).

SMILES strings stand for the structures. pKd: −log10 of the molar value.

As to `C=CC1=C(C)C2=Cc3c(C=C)c(C)c4[n]3[Fe][n]3c(c(C)c(CCC(=O)O)c3=CC3=NC(=C4)C(C)=C3CCC(=O)O)=CC1=N2` [heme], the pKd in assay [1] is greater than 6.42; at IsdB-N2 M362L, greater than 6.31. Also, the “stopped-flow Soret spectroscopy of heme transfer from holo-IsdB-N2 to apo-IsdA-N” value in assay [2] worked out at 82 ± 6 s^–1.
